Data from patent publication EP0144519A1, “2',4'-Difluoro-4-hydroxy-(1,1'-diphenyl)-3-carboxylic derivatives of N-acetylcysteine and of S-carboxymethylcysteine having anti-inflammatory and mucolytic activity, process for their preparation and related pharmaceutical compositions” (priority 1983, dated 1985).
Counter-ions that a name gives are not always drawn.

Experiments:
[1] = tested on: carrageen induced paw oedema; test: carrageen induced paw oedema in the rat (anti-inflammatory activity); format: in vivo; conditions: administered 1h before the carrageen, 10 animals
From the text: (§1) The pharmaco-toxicological properties of the compounds '1 have been studied in comparison with diflunisal and with N-acetylcysteine, in order to evaluate the pharmacological and toxicological properties of the compounds of the invention with respect to those of the starting compounds. The results relating to the compound 5 (see scheme I) are hereinafter reported, only for illustrative and not for limiting purpose.

[2] = tested on: phenylquinone induced writhing; test: phenylquinone induced writhing in the mouse (analgesic activity); format: in vivo; conditions: 10 animals
From the text: as §1

[3] = tested on: sacrospinalis muscle; test: histolesivity, intramuscular injection in the sacrospinalis muscle of rabbit; format: in vivo; conditions: equimolar doses
From the text: (§2) Other toxicological features of the compound 5 have been also studied, more particularly the histolesivity (intramuscular injection in the sacrospinalis muscle of rabbit) and the gastrolesivity (ulcers after oral administration in the rat).

[4] = tested on: ulcers; test: gastrolesivity, ulcers after oral administration in the rat; format: in vivo; conditions: equimolar doses
From the text: as §2

[5] = plasma levels of diflunisal after oral administration in the rat (pharmacokinetics); format: in vivo; conditions: 40 umol/kg, oral dose 0.04 mmol/kg
From the text: Lastly, some pharmacokinetic properties of the compound 5 have been investigated, by measuring the plasma levels of diflunisal after oral administration of 0.04 mmol/kg p.o. in the rat, this dose being close to the therapeutical one. [table]

[6] = water solubility (observation at preparation); format: physicochemical
Description: 3.95 g of S-[2',4'-difluoro-4-hydroxy-(1,1'-diphenyl)-3-carbonyl]-N-acetyl-L-cysteine (5) are added with 2.92 g of lysine base as a 50% aqueous solution, 8 ml of water and 20 ml of acetone; the mixture is stirred until a clear solution is obtained and filtered. Under stirring the mixture is diluted up to 100 ml with acetone, cooled to -10°C for a night, filtered and dried in a stove at 50-60°C under vacuum. A white, water soluble product is obtained having melting point of 179-184°C, with a yield of 92%.

histolesivity [3] | Cmax [5] | AUC(0-inf) ([5]; read-out: o → oo) | Tmax ([5]; read-out: tC max) | half-life ([5]; read-out: t½ (converted)) | solubility in water [6] | Compound | INIBITION % (medium value ± s.e.) anti-inflammatory activity (a) ([1]; 0.040 mmol kg^-1 p.o.) | INIBITION % (medium value ± s.e.) anti-inflammatory activity (a) ([1]; 0.120 mmol kg^-1 p.o.) | INIBITION % (medium value ± s.e.) anti-inflammatory activity (a) ([1]; 0.400 mmol kg^-1 p.o.) | INIBITION % (medium value ± s.e.) analgesic activity (b) ([2]; 0.040 mmol kg^-1 p.o.) | INIBITION % (medium value ± s.e.) analgesic activity (b) ([2]; 0.120 mmol kg^-1 p.o.) | INIBITION % (medium value ± s.e.) analgesic activity (b) ([2]; 0.400 mmol kg^-1 p.o.) | gastrolesivity [4]
high | 39700 ng/mL | 345 µg·h/mL | 3 h | 252 min | – | O=C(O)c1cc(-c2ccc(F)cc2F)ccc1O [Diflunisal, 2',4'-difluoro-4-hydroxy-(1,1'-diphenyl)-3-carboxylic acid] | 29.6 ± 5.4% | 50.3 ± 2.0% | 53.9 ± 4.7% | 9.5 ± 6.2% | 16.6 ± 15.9% | 39.6 ± 9.8% | high
– | – | – | – | – | water soluble | CC(=O)N[C@@H](CSC(=O)c1cc(-c2ccc(F)cc2F)ccc1O)C(=O)O [Example 8, S-/ 2',4'-difluoro-4-hydroxy-(1,1'-diphenyl)-3-carbonyl]-N-acetyl-L-cysteine lysine salt] | – | – | – | – | – | – | –
